We go through three molecules from paper PMC9301957 (ACS Omega, 2022).

Experiment [1] addresses EGFR (Homo sapiens, UniProt P00533). The experiment in a line: EGFR protein kinase. The experiment is classed as biochemical. The following applies: mean ± SD of three replicates; for inhibition at 10 µM: read-out: autophosphorylation percentage inhibition at conc (10 μM), 10 μM.
The test system of experiment [2] is AKT. In words: AKT ELISA, downstream signaling pathway in HCT-116 cells. The experiment is classed as cell-based, human. The following applies: compound at its IC50, untreated control 45.39 ng/mL. (An ELISA detects its analyte on a solid surface through an enzyme-linked reagent.)
Experiment [3] has as its system mTOR. The experiment in a line: mTOR ELISA, downstream signaling pathway in HCT-116 cells. The experiment is classed as cell-based, human. The following applies: compound at its IC50, untreated control 86.39 ng/mL.
The test system of experiment [4] is PI3K. In words: PI3K ELISA, downstream signaling pathway in HCT-116 cells. The experiment is classed as cell-based, human. The settings on record: compound at its IC50, untreated control 6.64 ng/mL.

Sequence of EGFR (P00533 25-1210): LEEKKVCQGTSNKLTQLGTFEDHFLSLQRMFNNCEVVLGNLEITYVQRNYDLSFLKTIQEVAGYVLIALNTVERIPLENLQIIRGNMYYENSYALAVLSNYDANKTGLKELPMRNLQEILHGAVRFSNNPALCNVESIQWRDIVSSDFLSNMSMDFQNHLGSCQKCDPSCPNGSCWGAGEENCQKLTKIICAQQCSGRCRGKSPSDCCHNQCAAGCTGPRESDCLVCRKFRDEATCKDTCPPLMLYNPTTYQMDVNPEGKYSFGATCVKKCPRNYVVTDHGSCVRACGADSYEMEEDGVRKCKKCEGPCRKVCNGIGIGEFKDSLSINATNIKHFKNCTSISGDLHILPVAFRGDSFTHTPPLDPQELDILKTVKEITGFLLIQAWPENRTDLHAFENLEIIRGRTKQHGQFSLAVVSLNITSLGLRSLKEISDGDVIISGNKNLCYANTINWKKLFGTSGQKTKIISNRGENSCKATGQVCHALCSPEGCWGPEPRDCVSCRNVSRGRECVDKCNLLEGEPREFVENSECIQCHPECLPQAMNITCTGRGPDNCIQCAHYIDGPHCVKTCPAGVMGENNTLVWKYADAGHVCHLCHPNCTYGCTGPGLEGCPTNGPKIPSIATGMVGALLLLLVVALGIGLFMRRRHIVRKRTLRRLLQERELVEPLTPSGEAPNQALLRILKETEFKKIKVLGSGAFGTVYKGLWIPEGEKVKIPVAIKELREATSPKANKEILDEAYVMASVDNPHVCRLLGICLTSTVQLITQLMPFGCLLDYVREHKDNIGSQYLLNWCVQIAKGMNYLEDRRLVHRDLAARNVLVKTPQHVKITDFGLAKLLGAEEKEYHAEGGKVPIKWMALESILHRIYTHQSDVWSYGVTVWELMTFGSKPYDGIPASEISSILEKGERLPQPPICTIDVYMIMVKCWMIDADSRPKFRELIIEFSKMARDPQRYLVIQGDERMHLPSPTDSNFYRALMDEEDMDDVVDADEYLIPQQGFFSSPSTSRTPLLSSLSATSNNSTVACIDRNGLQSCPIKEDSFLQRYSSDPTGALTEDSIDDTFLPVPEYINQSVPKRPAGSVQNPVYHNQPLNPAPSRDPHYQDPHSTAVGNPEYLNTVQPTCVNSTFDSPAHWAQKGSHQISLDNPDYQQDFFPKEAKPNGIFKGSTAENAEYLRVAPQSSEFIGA

In the case of `Cc1cc(C)n(-c2nc(Nc3ccc(Cl)cc3)nc(-n3nc(C)cc3C)n2)n1` [Compound 5c, N-(4-chlorophenyl)-4,6-bis(3,5-dimethyl-1H-pyrazol-1-yl)-1,3,5-triazin-2-amine], in experiment [1], the “autophosphorylation percentage inhibition at conc (10 μM)” value was found to be 69.68 ± 2.01% and the inhibition at 10 µM came out at 70%.
`Cc1cc(C)n(-c2nc(Nc3ccc(Br)cc3)nc(N3CCOCC3)n2)n1` [Compound 4f, N-(4-Bromophenyl)-4-(3,5-dimethyl-1H-pyrazol-1-yl)-6-morpholino-1,3,5-triazin-2-amine]: in experiment [2], the “AKT concentration in treated HCT-116 cells” value was 12.35 ng/mL. The “mTOR concentration in treated HCT-116 cells” value in experiment [3] was found to be 34.36 ng/mL. Besides, the “PI3K concentration in treated HCT-116 cells” value in experiment [4] stood at 1.24 ng/mL.
On to `COc1ccc(Nc2nc(-n3nc(C)cc3C)nc(-n3nc(C)cc3C)n2)cc1` [Compound 5d, 4,6-bis(3,5-dimethyl-1H-pyrazol-1-yl)-N-(4-methoxyphenyl)-1,3,5-triazin-2-amine], for which, in experiment [1], the “autophosphorylation percentage inhibition at conc (10 μM)” value turned out to be 74.68 ± 2.47% and the inhibition at 10 µM turned out to be 74.7%.

In general, inhibition refers to how much of the control response was suppressed.
